In publication PMC8026774 (Cellular and molecular neurobiology, 2020) one finds Kd data, which are given here for 1 compound.

What all share (assay): radioligand saturation binding, CHO membranes
Experiment [1] concerns the target MOR-1-PK (Mus musculus, UniProt P42866).
In experiment [2] the target is MOR-1 (untagged) (Mus musculus, UniProt P42866).
In experiment [3] the target is MOR-TR-PK (Mus musculus, UniProt P42866, DEL387-398).
Experiment [4] has as its target MOR-1O (untagged) (Mus musculus, UniProt P42866).
Experiment [5] concerns the target MOR-1O-PK (Mus musculus, UniProt P42866).

For `O=C(N[C@@H]1CC[C@@]2(O)[C@H]3Cc4ccc(O)c5c4[C@@]2(CCN3CC2CC2)[C@H]1O5)c1cccc(I)c1` [[^125I]IBNtxA], the Kd in experiment [1] is 0.1 ± 0.01 nM; in experiment [2], 0.13 ± 0.03 nM; in experiment [3], 0.1 ± 0.02 nM; in experiment [4] it was 0.2 ± 0.07 nM; in experiment [5], 0.24 ± 0.11 nM.
